Columns and labels:
Mec-1 cells = experiment: Cell growth curves over 12 days, Mec-1; type: cell-based; conditions: for anti-proliferative potency compared to PRT382: Mec-1
Protocol: (§1) Live cells/mL were counted on days 3, 6, 10, and 12. […] The split factor was calculated at indicated time points by dividing the counted cells/mL by 3E5. Cell growth was extrapolated over time by multiplying the subsequent cell count by the previous split factor. Cell growth is plotted as fold change relative to DMSO-treated cells.

HG3 cells = experiment: Cell growth curves over 12 days, HG3; type: cell-based; conditions: for anti-proliferative potency compared to PRT382: HG3
Protocol: as §1

Structure (SMILES): Nc1ncnc2c1ccn2[C@@H]1O[C@H]([C@H](O)c2ccccc2)[C@@H](O)[C@H]1O [LLY-283]
- Rep 1 Live Cells [Fold Change] (Mec-1 cells; Mec-1, 1 nM, day 0): 1 Fold Change
- Rep 2 Live Cells [Fold Change] (Mec-1 cells; Mec-1, 1 nM, day 0): 1 Fold Change
- Rep 1 Live Cells [Fold Change] (Mec-1 cells; Mec-1, 1 nM, day 3): 7.4 Fold Change
- Rep 2 Live Cells [Fold Change] (Mec-1 cells; Mec-1, 1 nM, day 3): 6.83 Fold Change
- Rep 1 Live Cells [Fold Change] (Mec-1 cells; Mec-1, 1 nM, day 6): 50.6 Fold Change
- Rep 2 Live Cells [Fold Change] (Mec-1 cells; Mec-1, 1 nM, day 6): 41.9 Fold Change
- Rep 1 Live Cells [Fold Change] (Mec-1 cells; Mec-1, 1 nM, day 10): 397 Fold Change
- Rep 2 Live Cells [Fold Change] (Mec-1 cells; Mec-1, 1 nM, day 10): 446 Fold Change
- Rep 1 Live Cells [Fold Change] (Mec-1 cells; Mec-1, 1 nM, day 12): 1480 Fold Change
- Rep 2 Live Cells [Fold Change] (Mec-1 cells; Mec-1, 1 nM, day 12): 1580 Fold Change
- Rep 1 Live Cells [Fold Change] (Mec-1 cells; Mec-1, 10 nM, day 0): 1 Fold Change
- Rep 2 Live Cells [Fold Change] (Mec-1 cells; Mec-1, 10 nM, day 0): 1 Fold Change
- Rep 1 Live Cells [Fold Change] (Mec-1 cells; Mec-1, 10 nM, day 3): 6.77 Fold Change
- Rep 2 Live Cells [Fold Change] (Mec-1 cells; Mec-1, 10 nM, day 3): 6.33 Fold Change
- Rep 1 Live Cells [Fold Change] (Mec-1 cells; Mec-1, 10 nM, day 6): 30.7 Fold Change
- Rep 2 Live Cells [Fold Change] (Mec-1 cells; Mec-1, 10 nM, day 6): 34 Fold Change
- Rep 1 Live Cells [Fold Change] (Mec-1 cells; Mec-1, 10 nM, day 10): 156 Fold Change
- Rep 2 Live Cells [Fold Change] (Mec-1 cells; Mec-1, 10 nM, day 10): 260 Fold Change
- Rep 1 Live Cells [Fold Change] (Mec-1 cells; Mec-1, 10 nM, day 12): 568 Fold Change
- Rep 2 Live Cells [Fold Change] (Mec-1 cells; Mec-1, 10 nM, day 12): 278 Fold Change
- Rep 1 Live Cells [Fold Change] (Mec-1 cells; Mec-1, 100 nM, day 0): 1 Fold Change
- Rep 2 Live Cells [Fold Change] (Mec-1 cells; Mec-1, 100 nM, day 0): 1 Fold Change
- Rep 1 Live Cells [Fold Change] (Mec-1 cells; Mec-1, 100 nM, day 3): 4.6 Fold Change
- Rep 2 Live Cells [Fold Change] (Mec-1 cells; Mec-1, 100 nM, day 3): 4.47 Fold Change
- Rep 1 Live Cells [Fold Change] (Mec-1 cells; Mec-1, 100 nM, day 6): 6.46 Fold Change
- Rep 2 Live Cells [Fold Change] (Mec-1 cells; Mec-1, 100 nM, day 6): 5.94 Fold Change
- Rep 1 Live Cells [Fold Change] (Mec-1 cells; Mec-1, 100 nM, day 10): 4.1 Fold Change
- Rep 2 Live Cells [Fold Change] (Mec-1 cells; Mec-1, 100 nM, day 10): 4.16 Fold Change
- Rep 1 Live Cells [Fold Change] (Mec-1 cells; Mec-1, 100 nM, day 12): 2.4 Fold Change
- Rep 2 Live Cells [Fold Change] (Mec-1 cells; Mec-1, 100 nM, day 12): 2.8 Fold Change
- Rep 1 Live Cells [Fold Change] (Mec-1 cells; Mec-1, 1 µM, day 0): 1 Fold Change
- Rep 2 Live Cells [Fold Change] (Mec-1 cells; Mec-1, 1 µM, day 0): 1 Fold Change
- Rep 1 Live Cells [Fold Change] (Mec-1 cells; Mec-1, 1 µM, day 3): 3.67 Fold Change
- Rep 2 Live Cells [Fold Change] (Mec-1 cells; Mec-1, 1 µM, day 3): 4.57 Fold Change
- Rep 1 Live Cells [Fold Change] (Mec-1 cells; Mec-1, 1 µM, day 6): 4.12 Fold Change
- Rep 2 Live Cells [Fold Change] (Mec-1 cells; Mec-1, 1 µM, day 6): 5.92 Fold Change
- Rep 1 Live Cells [Fold Change] (Mec-1 cells; Mec-1, 1 µM, day 10): 2.43 Fold Change
- Rep 2 Live Cells [Fold Change] (Mec-1 cells; Mec-1, 1 µM, day 10): 2.13 Fold Change
- Rep 1 Live Cells [Fold Change] (Mec-1 cells; Mec-1, 1 µM, day 12): 1.89 Fold Change
- Rep 2 Live Cells [Fold Change] (Mec-1 cells; Mec-1, 1 µM, day 12): 1.46 Fold Change
- anti-proliferative potency compared to PRT382 (Mec-1 cells; high doses (1µM)): similar
- anti-proliferative potency compared to PRT382 (Mec-1 cells; lower doses (10nM, 100nM)): more potent
- Rep 1 Live Cells [Fold Change] (HG3 cells; HG3, 1 nM, day 0): 1 Fold Change
- Rep 2 Live Cells [Fold Change] (HG3 cells; HG3, 1 nM, day 0): 1 Fold Change
- Rep 1 Live Cells [Fold Change] (HG3 cells; HG3, 1 nM, day 3): 6.4 Fold Change
- Rep 2 Live Cells [Fold Change] (HG3 cells; HG3, 1 nM, day 3): 6.4 Fold Change
- Rep 1 Live Cells [Fold Change] (HG3 cells; HG3, 1 nM, day 6): 45.44 Fold Change
- Rep 2 Live Cells [Fold Change] (HG3 cells; HG3, 1 nM, day 6): 39.4667 Fold Change
- Rep 1 Live Cells [Fold Change] (HG3 cells; HG3, 1 nM, day 10): 270.368 Fold Change
- Rep 2 Live Cells [Fold Change] (HG3 cells; HG3, 1 nM, day 10): 299.947 Fold Change
- Rep 1 Live Cells [Fold Change] (HG3 cells; HG3, 1 nM, day 12): 973.325 Fold Change
- Rep 2 Live Cells [Fold Change] (HG3 cells; HG3, 1 nM, day 12): 1379.76 Fold Change
- Rep 1 Live Cells [Fold Change] (HG3 cells; HG3, 10 nM, day 0): 1 Fold Change
- Rep 2 Live Cells [Fold Change] (HG3 cells; HG3, 10 nM, day 0): 1 Fold Change
- Rep 1 Live Cells [Fold Change] (HG3 cells; HG3, 10 nM, day 3): 6.167 Fold Change
- Rep 2 Live Cells [Fold Change] (HG3 cells; HG3, 10 nM, day 3): 6.2 Fold Change
- Rep 1 Live Cells [Fold Change] (HG3 cells; HG3, 10 nM, day 6): 34.3278 Fold Change
- Rep 2 Live Cells [Fold Change] (HG3 cells; HG3, 10 nM, day 6): 39.4733 Fold Change
- Rep 1 Live Cells [Fold Change] (HG3 cells; HG3, 10 nM, day 10): 260.891 Fold Change
- Rep 2 Live Cells [Fold Change] (HG3 cells; HG3, 10 nM, day 10): 335.523 Fold Change
- Rep 1 Live Cells [Fold Change] (HG3 cells; HG3, 10 nM, day 12): 755.715 Fold Change
- Rep 2 Live Cells [Fold Change] (HG3 cells; HG3, 10 nM, day 12): 1174.33 Fold Change
- Rep 1 Live Cells [Fold Change] (HG3 cells; HG3, 100 nM, day 0): 1 Fold Change
- Rep 2 Live Cells [Fold Change] (HG3 cells; HG3, 100 nM, day 0): 1 Fold Change
- Rep 1 Live Cells [Fold Change] (HG3 cells; HG3, 100 nM, day 3): 5.133 Fold Change
- Rep 2 Live Cells [Fold Change] (HG3 cells; HG3, 100 nM, day 3): 5.6 Fold Change
- Rep 1 Live Cells [Fold Change] (HG3 cells; HG3, 100 nM, day 6): 5.048 Fold Change
- Rep 2 Live Cells [Fold Change] (HG3 cells; HG3, 100 nM, day 6): 7.691 Fold Change
- Rep 1 Live Cells [Fold Change] (HG3 cells; HG3, 100 nM, day 10): 6.991 Fold Change
- Rep 2 Live Cells [Fold Change] (HG3 cells; HG3, 100 nM, day 10): 12.0359 Fold Change
- Rep 1 Live Cells [Fold Change] (HG3 cells; HG3, 100 nM, day 12): 6.651 Fold Change
- Rep 2 Live Cells [Fold Change] (HG3 cells; HG3, 100 nM, day 12): 12.2598 Fold Change
- Rep 1 Live Cells [Fold Change] (HG3 cells; HG3, 1 µM, day 0): 1 Fold Change
- Rep 2 Live Cells [Fold Change] (HG3 cells; HG3, 1 µM, day 0): 1 Fold Change
- Rep 1 Live Cells [Fold Change] (HG3 cells; HG3, 1 µM, day 3): 4.533 Fold Change
- Rep 2 Live Cells [Fold Change] (HG3 cells; HG3, 1 µM, day 3): 5.967 Fold Change
- Rep 1 Live Cells [Fold Change] (HG3 cells; HG3, 1 µM, day 6): 3.083 Fold Change
- Rep 2 Live Cells [Fold Change] (HG3 cells; HG3, 1 µM, day 6): 6.961 Fold Change
- Rep 1 Live Cells [Fold Change] (HG3 cells; HG3, 1 µM, day 10): 2.4 Fold Change
- Rep 2 Live Cells [Fold Change] (HG3 cells; HG3, 1 µM, day 10): 7.031 Fold Change
- Rep 1 Live Cells [Fold Change] (HG3 cells; HG3, 1 µM, day 12): 1.832 Fold Change
- Rep 2 Live Cells [Fold Change] (HG3 cells; HG3, 1 µM, day 12): 4.873 Fold Change
- anti-proliferative potency compared to PRT382 (HG3 cells; high doses (1µM)): similar
- anti-proliferative potency compared to PRT382 (HG3 cells; lower doses (10nM, 100nM)): more potent
